Tested on: CD1 female mouse brain lipidome
Assay: Brain-region lipid levels (HPLC/MS/MS lipidomics) 2 h after single i.p. 3 mg/kg CP 55,940 vs vehicle
Format: in vivo
Set-up: N-arachidonoyl phenylalanine level, Mean / N-stearoyl tryptophan level, Mean / N-stearoyl proline level, Mean / N-stearoyl leucine level, Mean / N-stearoyl phenylalanine level, Mean / N-stearoyl serine level, Mean / N-stearoyl methionine level, Mean: unit: moles per gram
Details: hippocampus, adult, 3 mg/kg CP 55,940
Protocol: The Bloomington Institutional Animal Care and Use Committee of Indiana University reviewed and approved the animal procedures. Female mice from the CD1 strain were utilized to match our study examining THC’s effects on the brain lipidome ([Leishman et al., 2018]). Mice were given a single i.p. injection of either 3 mg/kg CP or 1:1:18 cremophor:ethanol:saline vehicle (please refer to the section “3 mg/kg CP Is Relevant for Synthetic Cannabinoid Abuse and Has Stronger Effects on the Female Mouse Brain Lipidome During Adolescence” for a justification of dose and use of female mice). Three different age groups were given injections: PND 35 and PND 50 adolescents, and adult mice (PND 113). At least eight mice in each age group received CP and at least eight received vehicle. Matching the THC study time course ([Leishman et al., 2018]), mice were sacrificed via rapid decapitation 2 h after injection. Brains were immediately removed and flash-frozen in liquid nitrogen, and then stored at -80°C until dissections were performed. Brains were dissected on an ice-cold dissection plate into the following regions: STR, HIPP, CER, THAL, CTX, HYP, MID, and STEM. These abbreviations for these brain areas will be used exclusively when discussing the results generated by these specific dissections. Each dissected area was immediately placed in liquid nitrogen and then stored at -80°C until used for lipid extraction.
Tissue extracts were performed as previously described ([Bradshaw et al., 2006]; [Stuart et al., 2013]; [Raboune et al., 2014]; [Leishman et al., 2016a],[b], [2017], [2018]). First, samples were shock frozen in liquid nitrogen, weighed, and transferred to a centrifuge tube. The mass of the largest sample was multiplied by 50 to determine how many milliliters of HPLC-grade methanol (Fisher, Fair Lawn, NJ, United States) to add. Then, samples were spiked with 500 pmol deuterium-labeled NAGly (d8NAGly; Cayman Chemical, Ann Arbor, MI, United States). Samples were placed on ice in darkness for 2 h then individually homogenized and centrifuged at 19,000 × g for 20 min at 20°C. Supernatants were diluted with HPLC water (purified in house) to make a solution of 75% water, 25% supernatant. Lipids were partially purified on C18 solid phase extraction columns (Agilent, Palo Alto, CA, United States). A series of four elutions with 1.5 mL of 60%, 75%, 85%, and 100% methanol were collected ([Stuart et al., 2013]; [Leishman et al., 2016a],[b], [2018]).
As previously described ([Bradshaw et al., 2006]; [Tan et al., 2006]; [Smoum et al., 2010]; [Stuart et al., 2013]; [Tortoriello et al., 2013]; [Raboune et al., 2014]; [Leishman et al., 2016a],[b], [2017], [2018]), samples were analyzed using an Applied Biosystems API 3000 triple quadrupole mass spectrometer with electrospray ionization (Foster City, CA, United States). Using an Agilent XDB-C18 reversed phase analytical column and optimized mobile phase gradients, 20 μL from each elution were chromatographed. Two Shimadzu 10ADvp pumps (Columbia, MD, United States) provided the pressure for gradient elution. Mobile phase A: 20% methanol, 80% water (v/v) and 1 mM ammonium acetate (Sigma, St. Louis, MO, United States). Mobile phase B: 100% methanol, 1 mM ammonium acetate. Every method run began with 0% mobile phase B, reached 100% mobile phase B flowing at 0.2 mL/min, and gradually returned to 0% mobile phase B.
This screening library will be referred to as the lipidome when discussing data from this study. HPLC/MS/MS data were analyzed using Analyst software (Applied Biosystems) ([Bradshaw et al., 2006]; [Tan et al., 2006]; [Stuart et al., 2013]; [Tortoriello et al., 2013]; [Raboune et al., 2014]; [Leishman et al., 2016a],[b], [2017], [2018]). Chromatograms (Supplementary Figure 3) were generated by determining the retention time of analytes from the analytical column with a [M-1] or [M+1] parent peak and a fragmentation peak corresponding to the programmed values. […]

With `CCCCCCC(C)(C)c1ccc([C@@H]2C[C@H](O)CC[C@H]2CCCO)c(O)c1` [CP 55,940] the “6-ketoPGF1α level, Mean” value was 2.42E-11, the “11-OH-THC level, Mean” value was “BDL” and the “11-nor-9-carboxyTHC level, Mean” value was “BDL”. The “Arachidonic acid level, Mean” value was 1.89E-09, the “Cannabidiol level, Mean” value was “BDL” and the “Linoleic acid level, Mean” value was 7.37E-10. For the same compound, the “N- stearoyl valine level, Mean” value was 3.95E-14, the “N-arachidonoyl GABA level, Mean” value was 2.86E-11 and the “N-arachidonoyl GABA: Direction (relative to Veh)” value was “↓”. For the same compound, the “N-arachidonoyl GABA: Magnitude (x Veh level)” value was 0.84 x Veh level, the “N-arachidonoyl alanine level, Mean” value was 3.66E-12 and the “N-arachidonoyl alanine: Direction (relative to Veh)” value was “↓”. The “N-arachidonoyl alanine: Magnitude (x Veh level)” value was 0.76 x Veh level, the “N-arachidonoyl dopamine level, Mean” value was “BDL” and the “N-arachidonoyl ethanolamine level, Mean” value was 3.15E-11. The “N-arachidonoyl glycine level, Mean” value was 2.03E-12, the “N-arachidonoyl glycine: Direction (relative to Veh)” value was “↓” and the “N-arachidonoyl glycine: Magnitude (x Veh level)” value was 0.72 x Veh level. For the same compound, the “N-arachidonoyl methionine level, Mean” value was “PISSR”, the “N-arachidonoyl phenylalanine level, Mean” value was 1.12E-13 and the “N-arachidonoyl phenylalanine: Direction (relative to Veh)” value was “↓”. The “N-arachidonoyl phenylalanine: Magnitude (x Veh level)” value was 0.60 x Veh level, the “N-arachidonoyl proline level, Mean” value was “BDL” and the “N-arachidonoyl serine level, Mean” value was “PISSR”. For the same compound, the “N-arachidonoyl taurine level, Mean” value was 2.3E-10, the “N-arachidonoyl tryptophan level, Mean” value was “BDL” and the “N-arachidonoyl tyrosine level, Mean” value was “PISSR”. The “N-docosahexaenoyl GABA level, Mean” value was 7.15E-12, the “N-docosahexaenoyl GABA: Direction (relative to Veh)” value was “↓” and the “N-docosahexaenoyl GABA: Magnitude (x Veh level)” value was 0.84 x Veh level. The “N-docosahexaenoyl alanine level, Mean” value was “PISSR”, the “N-docosahexaenoyl ethanolamine level, Mean” value was 2.18E-11 and the “N-docosahexaenoyl glycine level, Mean” value was 1.21E-13. The “N-docosahexaenoyl leucine level, Mean” value was “PISSR”, the “N-docosahexaenoyl methionine level, Mean” value was “BDL” and the “N-docosahexaenoyl phenylalanine level, Mean” value was “PISSR”. The “N-docosahexaenoyl proline level, Mean” value was “BDL”, the “N-docosahexaenoyl serine level, Mean” value was “PISSR” and the “N-docosahexaenoyl tryptophan level, Mean” value was “BDL”. For the same compound, the “N-docosahexaenoyl tyrosine level, Mean” value was “PISSR”, the “N-docosahexaenoyl valine level, Mean” value was “PISSR” and the “N-linoleoyl GABA level, Mean” value was “PISSR”. The “N-linoleoyl alanine level, Mean” value was 3.37E-13, the “N-linoleoyl ethanolamine level, Mean” value was 2.58E-11 and the “N-linoleoyl glycine level, Mean” value was 1.16E-13. The “N-linoleoyl leucine level, Mean” value was “PISSR”, the “N-linoleoyl methionine level, Mean” value was “BDL” and the “N-linoleoyl phenylalanine level, Mean” value was “PISSR”. The “N-linoleoyl proline level, Mean” value was “BDL”, the “N-linoleoyl serine level, Mean” value was 7.17E-11 and the “N-linoleoyl tryptophan level, Mean” value was “BDL”. The “N-linoleoyl tyrosine level, Mean” value was “PISSR”, the “N-linoleoyl valine level, Mean” value was “PISSR” and the “N-nervonoyl valine level, Mean” value was “BDL”. The “N-oleoyl GABA level, Mean” value was 1.55E-11, the “N-oleoyl GABA: Direction (relative to Veh)” value was “↓” and the “N-oleoyl GABA: Magnitude (x Veh level)” value was 0.88 x Veh level. The “N-oleoyl alanine level, Mean” value was 3.73E-12, the “N-oleoyl dopamine level, Mean” value was “BDL” and the “N-oleoyl ethanolamine level, Mean” value was 1.06E-10. For the same compound, the “N-oleoyl glycine level, Mean” value was 5.21E-13, the “N-oleoyl leucine level, Mean” value was 1.44E-12 and the “N-oleoyl methionine level, Mean” value was “PISSR”. The “N-oleoyl phenylalanine level, Mean” value was 3.98E-13, the “N-oleoyl phenylalanine: Direction (relative to Veh)” value was “↓” and the “N-oleoyl phenylalanine: Magnitude (x Veh level)” value was 0.70 x Veh level. The “N-oleoyl proline level, Mean” value was “BDL”, the “N-oleoyl serine level, Mean” value was 3.49E-10 and the “N-oleoyl tryptophan level, Mean” value was “BDL”. The “N-oleoyl tyrosine level, Mean” value was 4.1E-13, the “N-oleoyl valine level, Mean” value was “PISSR” and the “N-palmitoyl GABA level, Mean” value was 2.14E-11. The “N-palmitoyl alanine level, Mean” value was 3.64E-12, the “N-palmitoyl ethanolamine level, Mean” value was 4.41E-11 and the “N-palmitoyl glycine level, Mean” value was 1.22E-12. The “N-palmitoyl leucine level, Mean” value was 2.6E-12, the “N-palmitoyl methionine level, Mean” value was 1.73E-12 and the “N-palmitoyl phenylalanine level, Mean” value was 4.39E-13. For the same compound, the “N-palmitoyl proline level, Mean” value was “BDL”, the “N-palmitoyl serine level, Mean” value was 1.33E-11 and the “N-palmitoyl tryptophan level, Mean” value was “BDL”. For the same compound, the “N-palmitoyl tyrosine level, Mean” value was 9.98E-13, the “N-palmitoyl valine level, Mean” value was 1.27E-13 and the “N-stearoyl GABA level, Mean” value was 1.57E-11. The “N-stearoyl alanine level, Mean” value was 2.38E-12, the “N-stearoyl ethanolamine level, Mean” value was 1.7E-11 and the “N-stearoyl glycine level, Mean” value was 2.12E-12. The “N-stearoyl leucine level, Mean” value was 2.18E-12, the “N-stearoyl phenylalanine level, Mean” value was 3.31E-13 and the “N-stearoyl proline level, Mean” value was “BDL”. The “N-stearoyl serine level, Mean” value was 2.78E-11, the “N-stearoyl serine: Direction (relative to Veh)” value was “↓” and the “N-stearoyl serine: Magnitude (x Veh level)” value was 0.85 x Veh level. For the same compound, the “N-stearoyl tryptophan level, Mean” value was “BDL”, the “N-stearoyl tyrosine level, Mean” value was 1.97E-13 and the “Oleic acid level, Mean” value was 1.43E-09. The “PGE2: Direction (relative to Veh)” value was “↑”, the “PGE2: Magnitude (x Veh level)” value was 1.18 x Veh level and the “PGE2 level, Mean” value was 3.37E-10. The “PGF2α: Direction (relative to Veh)” value was “↑”, the “PGF2α: Magnitude (x Veh level)” value was 1.30 x Veh level and the “PhosphoLEA level, Mean” value was 1.8E-11.
